30 molecules from BindingDB's records for doi:10.1021/jm050825p (National Institute of Allergy and Infectious Diseases, 2006) can be followed below.

Test [1] addresses T1, 3-oxoacyl-[acyl-carrier-protein] synthase 2 (Mycobacterium tuberculosis (strain ATCC 25618 / H37Rv), UniProt P9WQD7).
T1 sequence (P9WQD7 whole entry): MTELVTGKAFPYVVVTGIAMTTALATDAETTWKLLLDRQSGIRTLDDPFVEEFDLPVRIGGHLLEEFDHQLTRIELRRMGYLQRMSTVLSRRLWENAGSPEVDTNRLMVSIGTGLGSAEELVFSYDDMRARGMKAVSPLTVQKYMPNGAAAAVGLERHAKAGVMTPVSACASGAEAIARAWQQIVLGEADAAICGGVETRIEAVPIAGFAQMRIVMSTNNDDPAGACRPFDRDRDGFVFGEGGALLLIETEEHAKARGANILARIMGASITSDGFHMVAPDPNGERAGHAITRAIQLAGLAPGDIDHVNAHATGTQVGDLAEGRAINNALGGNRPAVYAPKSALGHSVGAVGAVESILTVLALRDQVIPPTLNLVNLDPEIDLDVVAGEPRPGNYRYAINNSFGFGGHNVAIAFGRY
In words: Inhibitory activity against KasB from Mycobacterium tuberculosis H37Rv.

Test [2] has as its target T2, 3-oxoacyl-[acyl-carrier-protein] synthase 3 (Mycobacterium tuberculosis (strain ATCC 25618 / H37Rv), UniProt P9WNG3).
T2 sequence (P9WNG3 whole entry): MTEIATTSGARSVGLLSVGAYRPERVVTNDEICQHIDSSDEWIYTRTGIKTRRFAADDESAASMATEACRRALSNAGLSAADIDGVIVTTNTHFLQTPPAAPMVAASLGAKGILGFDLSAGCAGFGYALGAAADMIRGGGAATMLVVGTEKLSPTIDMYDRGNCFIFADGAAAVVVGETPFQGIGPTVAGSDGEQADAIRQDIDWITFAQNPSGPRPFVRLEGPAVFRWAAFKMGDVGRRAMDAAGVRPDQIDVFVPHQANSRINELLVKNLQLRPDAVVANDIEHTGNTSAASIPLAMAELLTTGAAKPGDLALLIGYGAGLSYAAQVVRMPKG
The experiment in a line: Inhibitory activity against FabH from Mycobacterium tuberculosis H37Rv.

The target of test [3] is T3, 3-oxoacyl-[acyl-carrier-protein] synthase 1 (Escherichia coli (strain K12), UniProt P0A953).
T3 sequence (P0A953 whole entry): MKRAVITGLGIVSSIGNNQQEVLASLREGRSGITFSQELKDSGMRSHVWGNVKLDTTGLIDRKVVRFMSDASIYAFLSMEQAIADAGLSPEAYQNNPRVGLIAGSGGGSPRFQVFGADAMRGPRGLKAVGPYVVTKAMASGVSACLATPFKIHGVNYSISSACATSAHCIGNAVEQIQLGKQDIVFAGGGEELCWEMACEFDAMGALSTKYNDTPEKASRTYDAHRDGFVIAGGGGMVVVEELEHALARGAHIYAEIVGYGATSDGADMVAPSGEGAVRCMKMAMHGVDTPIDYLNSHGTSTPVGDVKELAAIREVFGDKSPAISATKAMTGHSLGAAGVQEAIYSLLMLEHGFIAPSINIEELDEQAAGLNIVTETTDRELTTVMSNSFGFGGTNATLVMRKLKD
In words: Inhibitory activity against FabB from Escherichia coli ANSI.

The target of test [4] is T4, 3-oxoacyl-[acyl-carrier-protein] synthase 3 (Escherichia coli, UniProt C3TDZ2).
T4 sequence (C3TDZ2 whole entry): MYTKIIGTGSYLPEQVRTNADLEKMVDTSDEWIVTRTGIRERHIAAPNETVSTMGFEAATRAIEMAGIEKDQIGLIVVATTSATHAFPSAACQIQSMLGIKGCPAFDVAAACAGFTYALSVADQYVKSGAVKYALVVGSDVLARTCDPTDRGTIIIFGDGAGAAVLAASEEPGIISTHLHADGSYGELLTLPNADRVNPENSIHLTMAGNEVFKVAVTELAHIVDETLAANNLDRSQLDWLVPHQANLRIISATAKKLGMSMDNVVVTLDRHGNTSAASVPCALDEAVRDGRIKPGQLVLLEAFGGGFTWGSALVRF
In words: Inhibitory activity against FabH from Escherichia coli ANSI.

The term IC50 denotes the midpoint of a concentration-inhibition curve. The low end stands for greater potency, the high end for weaker potency. As for `CC1C(=O)SC(C)(Cc2cccc(Cl)c2)C1=O` (stereo not given) [5-(3-chlorobenzyl)-3,5-dimethyl-4-hydroxy-5H-thiophen-2-one], the IC50 in test [1], in test [2], in test [3] and in test [4] was more than 1000 µM in each case.
In the case of `CC1C(=O)SC(C)(Cc2ccc(C(F)(F)F)cc2)C1=O` (stereo not given) [3,5-dimethyl-4-hydroxy-5-(4-trifluoromethylbenzyl)-5H-thiophen-2-one], in test [2], the IC50 was more than 100 µM.
Turning to `CC1C(=O)SC(C)(CC2CC2)C1=O` (stereo not given) [5-cyclopropylmethyl-3,5-dimethyl-4-hydroxy-5H-thiophen-2-one], the IC50 in test [4] is more than 100 µM.
For `CCCCCCCCCC1(C)SC(=O)C(C)C1=O` (stereo not given) [3,5-dimethyl-4-hydroxy-5-nonyl-5H-thiophen-2-one], the IC50 in test [1] is more than 1000 µM; in test [2], more than 100 µM; in test [3], more than 1000 µM; in test [4] it was more than 100 µM.
In the case of `CCCCCCCCC1(C)SC(=O)C(C)C1=O` (stereo not given) [4-Hydroxy-3,5-dimethyl-5-octyl-5H-thiophen-2-one], the IC50 in test [2] and in test [4] was more than 100 µM in each case.
For `CCCCC(CC)CC1(C)SC(=O)C(C)C1=O` (stereo not given) [3,5-dimethyl-5-(2-ethylhexyl)-4-hydroxy-5H-thiophen-2-one], the IC50 in test [1], in test [2], in test [3] and in test [4] was more than 1000 µM in each case.
Consider `CC1C(=O)SC(C)(Cc2ccc(C(C)(C)C)cc2)C1=O` (stereo not given) [5-(4-tert-butylbenzyl)-3,5-dimethyl-4-hydroxy-5H-thiophen-2-one], for which the IC50 is more than 1000 µM in test [1], more than 100 µM in test [2], more than 1000 µM in test [3] and more than 1000 µM in test [4].
Take `CC1C(=O)SC(C)(CC2CCCCC2)C1=O` (stereo not given) [5-cyclohexylmethyl-3,5-dimethyl-4-hydroxy-5H-thiophen-2-one]: the concentration for half-maximal inhibition (IC50) in test [1], in test [2], in test [3] and in test [4] was more than 1000 µM in each case.
Turning to `Cc1cc(C)c(CC2(C)SC(=O)C(C)C2=O)c(C)c1` (stereo not given) [3,5-dimethyl-4-hydroxy-5-(2,4,6-trimethylbenzyl)-5H-thiophen-2-one], the IC50 in test [1], in test [2], in test [3] and in test [4] was more than 1000 µM in each case.
On to `CC1C(=O)SC(C)(Cc2ccc(F)cc2)C1=O` (stereo not given) [3,5-dimethyl-5-(4-fluorobenzyl)-4-hydroxy-5H-thiophen-2-one], for which the concentration for half-maximal inhibition (IC50) was more than 1000 µM in test [1], more than 100 µM in test [2], more than 1000 µM in test [3] and more than 1000 µM in test [4].
For the molecule `CC(C)=CCC/C(C)=C/CC1(C)SC(=O)C(C)C1=O` (stereo not given) [5-((E)-3,7-Dimethyl-octa-2,6-dienyl)-4-hydroxy-3,5-dimethyl-5H-thiophen-2-one], the concentration for half-maximal inhibition (IC50) in test [4] is 100 µM.
`CC1C(=O)SC(C)(CCCc2ccccc2)C1=O` (stereo not given) [3,5-dimethyl-4-hydroxy-5-(3-phenylpropyl)-5H-thiophen-2-one]: the IC50 in test [1], in test [2], in test [3] and in test [4] was more than 1000 µM throughout.
With `CCCCCCCCCCC1(C)SC(=O)C(C)C1=O` (stereo not given) [5-Decyl-4-hydroxy-3,5-dimethyl-5H-thiophen-2-one], the 50% inhibitory concentration (IC50) in test [2] is more than 100 µM; in test [4], 100 µM.
For `CC/C=C/CC1(C)SC(=O)C(C)C1=O` (stereo not given) [3,5-dimethyl-4-hydroxy-5-((E)-pent-2-enyl)-5H-thiophen-2-one], the half-inhibitory concentration (IC50) in test [1], in test [2], in test [3] and in test [4] was more than 1000 µM each time.
Take `CC1C(=O)SC(C)(Cc2ccc([N+](=O)[O-])cc2)C1=O` (stereo not given) [3,5-dimethyl-4-hydroxy-5-(4-nitrobenzyl)-5H-thiophen-2-one]: the concentration for half-maximal inhibition (IC50) in test [1], in test [2], in test [3] and in test [4] was more than 1000 µM each time.
In the case of `COc1cc(CC2(C)SC(=O)C(C)C2=O)cc(OC)c1` (stereo not given) [3,5-dimethyl-5-(3,5-dimethoxybenzyl)-4-hydroxy-5H-thiophen-2-one], the IC50 in test [1], in test [2], in test [3] and in test [4] was more than 1000 µM in each case.
For `Cc1cccc(CC2(C)SC(=O)C(C)C2=O)c1` (stereo not given) [3,5-dimethyl-4-hydroxy-5-(3-methylbenzyl)-5H-thiophen-2-one], the IC50 in test [1], in test [2], in test [3] and in test [4] was more than 1000 µM in each case.
Regarding `CC1C(=O)SC(C)(C(C)c2ccccc2)C1=O` (stereo not given) [3,5-dimethyl-4-hydroxy-5-(1-phenylethyl)-5H-thiophen-2-one], the IC50 in test [1], in test [2], in test [3] and in test [4] was more than 1000 µM in each case.
With `COc1cccc(CC2(C)SC(=O)C(C)C2=O)c1` (stereo not given) [4-Hydroxy-5-(3-methoxy-benzyl)-3,5-dimethyl-5H-thiophen-2-one], the IC50 in test [1], in test [2], in test [3] and in test [4] was more than 1000 µM in each case.
As for `CC1C(=O)SC(C)(Cc2ccc3ccccc3c2)C1=O` (stereo not given) [3,5-dimethyl-4-hydroxy-5-(naphthalen-2-ylmethyl)-5H-thiophen-2-one], the IC50 is more than 1000 µM in test [1], more than 100 µM in test [2], more than 1000 µM in test [3] and more than 1000 µM in test [4].
`CC1C(=O)SC(C)(Cc2ccc(Cl)cc2Cl)C1=O` (stereo not given) [5-(2,4-dichlorobenzyl)-3,5-dimethyl-4-hydroxy-5H-thiophen-2-one] came in with an IC50 in test [2] of more than 100 µM.
`CC1C(=O)SC(C)(Cc2ccc(Cl)cc2)C1=O` (stereo not given) [5-(4-chlorobenzyl)-3,5-dimethyl-4-hydroxy-5H-thiophen-2-one]: the concentration for half-maximal inhibition (IC50) was more than 1000 µM in test [1], more than 100 µM in test [2], more than 1000 µM in test [3] and more than 1000 µM in test [4].
As for `CCCCCCCCCCCC1(C)SC(=O)C(C)C1=O` (stereo not given) [3,5-dimethyl-4-hydroxy-5-undecyl-5H-thiophen-2-one], the half-inhibitory concentration (IC50) in test [1] was more than 1000 µM; in test [3] it was more than 1000 µM; in test [4], more than 100 µM.
For `C=CCCC1(C)SC(=O)C(C)C1=O` (stereo not given) [5-(but-3-enyl)-3,5-dimethyl-4-hydroxy-5H-thiophen-2-one], the concentration for half-maximal inhibition (IC50) in test [1], in test [2], in test [3] and in test [4] was more than 1000 µM throughout.
In the case of `CC1C(=O)SC(C)(Cc2ccc(Cl)c(Cl)c2)C1=O` (stereo not given) [5-(3,4-dichlorobenzyl)-3,5-dimethyl-4-hydroxy-5H-thiophen-2-one], the half-inhibitory concentration (IC50) in test [2] and in test [4] was more than 100 µM throughout.
Molecule `CC[C@H](C)CC1(C)SC(=O)C(C)C1=O` (stereo partly drawn) [3,5-dimethyl-4-hydroxy-5-((S)2-methylbutyl)-5H-thiophen-2-one] gave an IC50 in test [4] of more than 100 µM.
With `CC1C(=O)SC(C)(C2CCCCC2)C1=O` (stereo not given) [5-cyclohexyl-3,5-dimethyl-4-hydroxy-5H-thiophen-2-one], the IC50 in test [2] is more than 100 µM.
`CCCCCCCCCCCCCC1(C)SC(=O)C(C)C1=O` (stereo not given) [3,5-dimethyl-4-hydroxy-5-tridecyl-5H-thiophen-2-one]: the IC50 in test [2] is 80 µM; in test [3], more than 100 µM; in test [4], 100 µM.
In test [2], `CCC(C)C1(C)SC(=O)C(C)C1=O` (stereo not given) [3,5-dimethyl-4-hydroxy-5-(1-methylpropyl)-5H-thiophen-2-one] showed an IC50 of more than 100 µM.
As for `CCCCCCCCCCCCCCC1(C)SC(=O)C(C)C1=O` (stereo not given) [3,5-dimethyl-4-hydroxy-5-tetradecyl-5H-thiophen-2-one], the IC50 was 80 µM in test [2], more than 100 µM in test [3] and 100 µM in test [4].
